According to PMC7136958, “Targeting the pregnane X receptor using microbial metabolite mimicry” (EMBO Molecular Medicine, 2020):
Converted amounts (≈) assume the structure as drawn. “And” between values parts separate entries of the source, which are not always exact repeats. Equal values may be shown once.

Legend:
[1] = Solubility of FKK6 in 10% DMSO; assay type: physicochemical; settings: aqueous, aqueous with cosolvent or surfactant or cyclodextrin, room temperature, read-out: maximal solubility (saturation concentration)
Procedure: FKK6 was solubilized to saturation concentrations (~ 500 μM) at room temperature in 10% DMSO (DMSO maximum tolerated dose in mice is ~ 2.5 g/kg/day for 35 consecutive days) (Caujolle et al, 1967a; Brayton, 1986).

[2] = target: T1, Mouse pregnane X receptor (mPXR) (Mus musculus, UniProt O54915); assay: mPXR reporter (MRP2) activity in HEK293T cells; assay type: cell-based
T1 construct: expressed in transfected cells; host or cells: HEK293T
Procedure: Reverse transfection assays were performed in Caco‐2 cells as previously published with the following modifications (Kublbeck et al, 2015). 3.0 × 10^4 cells per well were transfected using pSG5‐PXR plasmid (300 ng/well), β‐Gal expression plasmid (600 ng/well), and CYP3A4‐luciferase reporter (500 ng/well) (Huang et al, 2007). After 24‐h transfection using Lipofectamine® LTX ([…] of plasmid), cells were exposed to FKK5 for 24 h. Cell lysates were prepared for β‐Gal and luciferase assays as previously published (Huang et al, 2007). The data are expressed as mean ± SD RLU (relative light units from luciferase assay) normalized to β‐Gal activity in the same well. Differences were tested using 2‐way ANOVA with Tukey's multiple comparison test, and P < 0.05 was considered significant (*). Standard transient transfection assays (PXR, CAR) in HEK293T cells were performed as previously published (Huang et al, 2007).

C57BL/6 mice = assay: 10 Day (acute) toxicity study in mice; assay type: in vivo, mouse
Procedure: The LS180 cell line was used to assess cell cytotoxicity using the MTT (3‐(4,5‐dimethylthiazolyl‐2)‐2,5‐diphenyltetrazolium bromide) assay as previously described (Bartonkova et al, 2015, 2016). […] FKK6 was selected as a lead compound for assessment, given that it had the more favorable PXR‐selective ligand activity in cells. […] The mice were gavaged for ten consecutive days and necropsied on day 12 with the collection of blood (serum). […] Similarly, a 30‐day toxicity test was conducted in mice using FKK6 at an oral dose of 200 μM in 0.8% DMSO per day. We chose this dose to stay within the safe DMSO dose administered to mice over 30 days. On day 30, we necropsied the mice and collected blood (serum).

[3] = test system: mutant PXR.1 (C285I/C301A); assay: PXR luciferase reporter assay in HEK293T cells, mutant PXR.1; assay type: cell-based, human; settings: 10 μM, replicate wells
Procedure: After 24‐h transfection using Lipofectamine® LTX ([…] of plasmid), cells were exposed to FKK5 for 24 h. […] The data are expressed as mean ± SD RLU (relative light units from luciferase assay) normalized to β‐Gal activity in the same well. Differences were tested using 2‐way ANOVA with Tukey's multiple comparison test, and P < 0.05 was considered significant (*).

ERK5 = ERK5 (Homo sapiens, UniProt Q13164); assay: KINOMEscan select kinase screen; assay type: binding; settings: two experiments
Procedure: (§1) Kinase Assays. The kinase inhibition assays were conducted by DiscoverX on a platform assay by Ambit BioSciences as described previously 16,17. FKK6 was screened at a single concentration of 10 μM in duplicate. The scanMAXSM assay panel measures 468 kinases
(§2) (https://www.discoverx.com/services/drug-discovery-development-services/kinase-profiling/kinomescan/scanmax). The assays measure a compound’s ability to inhibit binding of a canonical ligand substrate, with 0% activity of control corresponding to full inhibition and 100% activity of control to no inhibition. […]
(§3) quantitative measure of compound selectivity based on the number of kinase hits (enzymes inhibited) divided by the total number of distinct kinases tested. Three different activity cut-offs were analyzed – […]
(§4) ; and S(1) or % activity of control
(§5) < 1. To illustrate effect or lack of effect, an image of the entire family of kinases tested were grouped by families and S(35). The TREEspot Kinase dendrogram image was generated using TREEspot™ Software Tool and reprinted with permission from KINOME scan®, a division of DiscoveRx […]

ERK2 = ERK2 (Homo sapiens, UniProt P28482); assay: KINOMEscan select kinase screen; assay type: binding; settings: two experiments
Procedure: as §1, §2, §3, §4, §5

ERK3 = ERK3 (Homo sapiens, UniProt Q16659); assay: KINOMEscan select kinase screen; assay type: binding; settings: two experiments
Procedure: as §1, §2, §3, §4, §5

ERK4 = ERK4 (Homo sapiens, UniProt P31152); assay: KINOMEscan select kinase screen; assay type: binding; settings: two experiments
Procedure: as §1, §2, §3, §4, §5

GSK3B = GSK3B (Homo sapiens, UniProt P49841); assay: KINOMEscan select kinase screen; assay type: binding; settings: two experiments
Procedure: as §1, §2, §3, §4, §5

ERK1 = ERK1 (Homo sapiens, UniProt P27361); assay: KINOMEscan select kinase screen; assay type: binding; settings: 10000 nM, two experiments
Procedure: as §1, §2, §3, §4, §5

CDK4 = CDK4 (Homo sapiens, UniProt P11802); assay: KINOMEscan select kinase screen; assay type: binding; settings: two experiments
Procedure: as §1, §2, §3, §4, §5

GSK3A = GSK3A (Homo sapiens, UniProt P49840); assay: KINOMEscan select kinase screen; assay type: binding; settings: two experiments
Procedure: as §1, §2, §3, §4, §5

Sequence of ERK5 (Q13164 whole entry): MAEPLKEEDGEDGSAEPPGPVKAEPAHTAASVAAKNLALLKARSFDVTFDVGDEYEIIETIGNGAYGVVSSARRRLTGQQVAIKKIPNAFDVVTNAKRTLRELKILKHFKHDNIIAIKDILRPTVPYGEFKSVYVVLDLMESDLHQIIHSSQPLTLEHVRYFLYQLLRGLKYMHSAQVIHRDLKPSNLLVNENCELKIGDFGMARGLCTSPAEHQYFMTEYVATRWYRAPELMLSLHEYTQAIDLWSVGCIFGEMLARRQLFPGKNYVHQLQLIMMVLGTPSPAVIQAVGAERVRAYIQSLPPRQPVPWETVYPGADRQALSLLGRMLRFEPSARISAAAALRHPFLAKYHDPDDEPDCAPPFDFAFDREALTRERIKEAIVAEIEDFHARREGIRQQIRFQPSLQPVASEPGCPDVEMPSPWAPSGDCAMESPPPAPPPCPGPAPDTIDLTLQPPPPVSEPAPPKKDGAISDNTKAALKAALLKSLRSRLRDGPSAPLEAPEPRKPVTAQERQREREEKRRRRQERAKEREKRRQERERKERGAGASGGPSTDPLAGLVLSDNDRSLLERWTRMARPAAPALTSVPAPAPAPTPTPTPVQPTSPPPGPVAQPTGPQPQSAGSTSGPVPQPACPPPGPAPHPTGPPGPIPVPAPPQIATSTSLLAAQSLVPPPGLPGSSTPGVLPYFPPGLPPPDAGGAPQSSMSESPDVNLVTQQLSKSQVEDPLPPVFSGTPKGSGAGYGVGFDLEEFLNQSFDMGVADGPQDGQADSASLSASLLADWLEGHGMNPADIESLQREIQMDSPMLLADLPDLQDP
Sequence of GSK3B (P49841 whole entry): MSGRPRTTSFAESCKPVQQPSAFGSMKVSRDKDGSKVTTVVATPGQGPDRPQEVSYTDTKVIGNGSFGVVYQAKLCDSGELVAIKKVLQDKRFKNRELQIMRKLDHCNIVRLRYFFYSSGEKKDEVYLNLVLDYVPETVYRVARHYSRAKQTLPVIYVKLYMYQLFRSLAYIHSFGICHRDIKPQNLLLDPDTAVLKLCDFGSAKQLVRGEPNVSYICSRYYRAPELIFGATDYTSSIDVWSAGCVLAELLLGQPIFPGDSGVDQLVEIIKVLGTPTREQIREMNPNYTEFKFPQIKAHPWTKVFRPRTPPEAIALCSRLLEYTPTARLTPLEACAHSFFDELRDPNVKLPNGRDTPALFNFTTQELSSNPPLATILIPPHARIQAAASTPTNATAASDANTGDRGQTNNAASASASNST
Sequence of GSK3A (P49840 whole entry): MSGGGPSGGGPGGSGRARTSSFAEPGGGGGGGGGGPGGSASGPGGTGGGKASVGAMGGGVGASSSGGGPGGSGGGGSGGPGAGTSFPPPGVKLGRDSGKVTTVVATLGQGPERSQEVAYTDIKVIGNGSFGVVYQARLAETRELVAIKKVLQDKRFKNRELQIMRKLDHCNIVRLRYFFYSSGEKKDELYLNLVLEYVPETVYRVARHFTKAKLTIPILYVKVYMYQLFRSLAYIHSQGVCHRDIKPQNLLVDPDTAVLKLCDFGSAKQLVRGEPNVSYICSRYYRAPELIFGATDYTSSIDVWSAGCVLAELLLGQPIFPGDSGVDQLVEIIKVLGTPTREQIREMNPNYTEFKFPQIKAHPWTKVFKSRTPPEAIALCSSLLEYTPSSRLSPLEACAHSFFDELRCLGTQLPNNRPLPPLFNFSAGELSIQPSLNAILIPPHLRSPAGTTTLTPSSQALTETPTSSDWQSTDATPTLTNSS
Sequence of CDK4 (P11802 whole entry): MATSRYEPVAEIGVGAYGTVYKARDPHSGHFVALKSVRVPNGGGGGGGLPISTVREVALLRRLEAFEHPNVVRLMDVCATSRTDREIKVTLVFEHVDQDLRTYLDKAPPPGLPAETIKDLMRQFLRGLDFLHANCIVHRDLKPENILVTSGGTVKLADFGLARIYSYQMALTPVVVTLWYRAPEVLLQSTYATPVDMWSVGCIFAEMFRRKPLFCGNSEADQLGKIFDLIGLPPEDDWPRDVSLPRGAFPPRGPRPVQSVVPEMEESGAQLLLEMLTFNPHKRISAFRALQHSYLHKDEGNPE
Sequence of ERK3 (Q16659 whole entry): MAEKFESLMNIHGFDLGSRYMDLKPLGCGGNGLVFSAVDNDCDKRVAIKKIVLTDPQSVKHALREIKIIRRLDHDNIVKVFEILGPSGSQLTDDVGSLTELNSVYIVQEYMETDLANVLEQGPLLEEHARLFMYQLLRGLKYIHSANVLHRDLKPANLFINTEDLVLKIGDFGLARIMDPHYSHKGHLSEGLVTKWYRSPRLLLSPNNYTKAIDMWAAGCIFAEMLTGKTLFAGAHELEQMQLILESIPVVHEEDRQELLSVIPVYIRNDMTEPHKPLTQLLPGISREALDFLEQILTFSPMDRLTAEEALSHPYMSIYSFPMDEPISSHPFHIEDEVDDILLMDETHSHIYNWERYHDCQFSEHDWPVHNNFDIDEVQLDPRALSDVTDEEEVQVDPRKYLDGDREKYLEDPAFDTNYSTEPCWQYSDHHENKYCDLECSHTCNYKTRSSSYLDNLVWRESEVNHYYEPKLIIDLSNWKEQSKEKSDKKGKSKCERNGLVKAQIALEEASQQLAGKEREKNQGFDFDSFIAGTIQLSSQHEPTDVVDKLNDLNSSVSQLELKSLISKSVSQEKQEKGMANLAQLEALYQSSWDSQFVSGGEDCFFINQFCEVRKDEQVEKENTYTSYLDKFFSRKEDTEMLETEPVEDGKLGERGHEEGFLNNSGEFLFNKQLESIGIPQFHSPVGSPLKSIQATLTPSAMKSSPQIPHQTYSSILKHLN
Sequence of ERK4 (P31152 whole entry): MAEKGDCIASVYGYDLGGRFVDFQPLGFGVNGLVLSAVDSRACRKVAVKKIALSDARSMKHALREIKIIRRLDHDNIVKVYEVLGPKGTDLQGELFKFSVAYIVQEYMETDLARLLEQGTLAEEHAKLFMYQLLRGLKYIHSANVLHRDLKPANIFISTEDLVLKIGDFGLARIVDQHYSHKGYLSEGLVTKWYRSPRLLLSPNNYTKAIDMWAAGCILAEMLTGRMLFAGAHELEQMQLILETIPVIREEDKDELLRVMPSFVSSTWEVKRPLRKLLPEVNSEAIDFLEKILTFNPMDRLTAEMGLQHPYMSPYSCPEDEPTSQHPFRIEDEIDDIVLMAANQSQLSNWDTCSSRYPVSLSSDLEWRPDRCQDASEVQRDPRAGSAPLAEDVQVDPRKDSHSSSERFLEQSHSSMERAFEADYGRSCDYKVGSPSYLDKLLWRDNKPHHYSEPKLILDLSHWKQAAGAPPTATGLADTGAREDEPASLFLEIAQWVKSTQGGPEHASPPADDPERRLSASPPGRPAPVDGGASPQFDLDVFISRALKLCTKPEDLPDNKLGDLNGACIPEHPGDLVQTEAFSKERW
Sequence of ERK2 (P28482 whole entry): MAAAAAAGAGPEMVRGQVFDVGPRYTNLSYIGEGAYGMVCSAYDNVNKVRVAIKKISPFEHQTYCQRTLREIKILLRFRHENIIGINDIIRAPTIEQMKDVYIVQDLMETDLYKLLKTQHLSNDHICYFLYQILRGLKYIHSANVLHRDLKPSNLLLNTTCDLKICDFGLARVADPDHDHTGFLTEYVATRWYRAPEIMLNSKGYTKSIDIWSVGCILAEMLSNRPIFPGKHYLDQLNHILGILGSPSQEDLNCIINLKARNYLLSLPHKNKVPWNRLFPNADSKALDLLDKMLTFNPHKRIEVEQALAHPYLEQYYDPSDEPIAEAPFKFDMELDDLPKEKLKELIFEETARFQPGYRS
Sequence of ERK1 (P27361 whole entry): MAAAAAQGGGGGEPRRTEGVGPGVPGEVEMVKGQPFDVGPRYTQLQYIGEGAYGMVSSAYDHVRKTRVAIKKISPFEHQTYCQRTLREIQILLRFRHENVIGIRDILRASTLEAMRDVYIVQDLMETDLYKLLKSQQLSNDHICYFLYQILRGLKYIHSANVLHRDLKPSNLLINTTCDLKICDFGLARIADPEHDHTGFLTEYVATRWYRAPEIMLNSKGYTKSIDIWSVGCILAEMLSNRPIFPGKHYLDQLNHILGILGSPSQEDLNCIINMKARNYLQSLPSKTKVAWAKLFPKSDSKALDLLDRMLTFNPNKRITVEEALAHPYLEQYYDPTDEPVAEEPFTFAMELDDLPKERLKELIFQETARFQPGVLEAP
T1 sequence (O54915 whole entry): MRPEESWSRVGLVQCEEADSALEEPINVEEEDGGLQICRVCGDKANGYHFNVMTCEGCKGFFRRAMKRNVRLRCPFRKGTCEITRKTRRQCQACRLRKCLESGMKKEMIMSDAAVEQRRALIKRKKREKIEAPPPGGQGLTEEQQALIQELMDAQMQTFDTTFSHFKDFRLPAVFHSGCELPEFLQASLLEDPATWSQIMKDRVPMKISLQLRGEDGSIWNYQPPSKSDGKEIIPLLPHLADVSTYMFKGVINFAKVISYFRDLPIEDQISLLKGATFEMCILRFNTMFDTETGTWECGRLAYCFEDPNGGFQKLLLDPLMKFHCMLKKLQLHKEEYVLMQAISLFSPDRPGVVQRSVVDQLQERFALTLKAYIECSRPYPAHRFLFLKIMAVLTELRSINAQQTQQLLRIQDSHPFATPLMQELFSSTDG

C#CCC(O)(c1ccncc1)c1cc2ccccc2n1S(=O)(=O)c1ccccc1 (centres unmarked) [FKK6]
solubility [1]: ~500 µM (≈ 201 µg/mL) | mouse PXR activation [2]: did not significantly activate | serum chemistry profiles (C57BL/6 mice; 500 μM in 10% DMSO per day, gavage, ten days): did not alter | tissue pathology vs vehicle (C57BL/6 mice; 500 μM in 10% DMSO per day, gavage, ten days, necropsy day 12): did not significantly impact tissue pathology | Histopathology: Kidney (C57BL/6 mice; 10 day, n=6): Degenerative tubules/vacuoles (rare) (n=6) | Histopathology: Liver (C57BL/6 mice; 10 day, n=6): Mild periportal inflammation (n=5) | Histopathology: Lung (C57BL/6 mice; 10 day, n=6): Mild leukocytes (n=2) | Histopathology: Spleen (C57BL/6 mice; 10 day, n=6): Mild lymphoid hyperplasia (n=2) | PXR reporter activity, RLU/B-Gal [3]: unable to activate mutant PXR and 17076.9 RLU/B-Gal and 15814.1 RLU/B-Gal and 17887 RLU/B-Gal and 19102.1 RLU/B-Gal

O=C(c1ccncc1)c1cc2ccccc2n1S(=O)(=O)c1ccccc1 [FKK5, (1-(phenylsulfonyl)-1H-indol-2-yl)(pyridin-4-yl)methanone]
%Ctrl (ERK5; 10000 nM, 10 µM): 79 %Ctrl | remaining binding at 10 µM (ERK5; 10000 nM, read-out: %Ctrl): 94% | %Ctrl (ERK5; 25000 nM, 25 µM): 92 %Ctrl | remaining binding at 25 µM (ERK5; 25000 nM, read-out: %Ctrl): 100% | %Ctrl (ERK2; 10000 nM, 10 µM): 100 %Ctrl | remaining binding at 10 µM (ERK2; 10000 nM, read-out: %Ctrl): 99% | %Ctrl (ERK2; 25000 nM, 25 µM): 85 %Ctrl | remaining binding at 25 µM (ERK2; 25000 nM, read-out: %Ctrl): 94% | %Ctrl (ERK3; 10000 nM, 10 µM): 88 %Ctrl | remaining binding at 10 µM (ERK3; 10000 nM, read-out: %Ctrl): 100% | %Ctrl (ERK3; 25000 nM, 25 µM): 93 %Ctrl | remaining binding at 25 µM (ERK3; 25000 nM, read-out: %Ctrl): 80% | %Ctrl (ERK4; 10000 nM, 10 µM): 82 %Ctrl | remaining binding at 10 µM (ERK4; 10000 nM, read-out: %Ctrl): 97% | %Ctrl (ERK4; 25000 nM, 25 µM): 91 %Ctrl | remaining binding at 25 µM (ERK4; 25000 nM, read-out: %Ctrl): 89% | %Ctrl (GSK3B; 10000 nM, 10 µM): 92 %Ctrl | remaining binding at 10 µM (GSK3B; 10000 nM, read-out: %Ctrl): 100% | %Ctrl (GSK3B; 25000 nM, 25 µM): 90 %Ctrl | remaining binding at 25 µM (GSK3B; 25000 nM, read-out: %Ctrl): 98% | %Ctrl (ERK1; 10 µM): 100 %Ctrl | remaining binding at 10 µM (ERK1; read-out: %Ctrl): 86% | %Ctrl (CDK4; 10000 nM, 10 µM): 98 %Ctrl | remaining binding at 10 µM (CDK4; 10000 nM, read-out: %Ctrl): 100% | %Ctrl (CDK4; 25000 nM, 25 µM): 90 %Ctrl | remaining binding at 25 µM (CDK4; 25000 nM, read-out: %Ctrl): 95% | %Ctrl (GSK3A; 10000 nM, 10 µM): 92 %Ctrl | remaining binding at 10 µM (GSK3A; 10000 nM, read-out: %Ctrl): 79% | %Ctrl (GSK3A; 25000 nM, 25 µM): 49 %Ctrl and 77 %Ctrl
